The values that follow come from paper PMC10794952, “Benzothiazole DNA gyrase inhibitors and their conjugates with siderophore mimics: design, synthesis and evaluation” (RSC Advances, 2024).

Structures are written as SMILES. In brackets after ≈: the same amount, converted by molar mass. Where two headings read alike, the source gives them in different places.

The target in one series is E. coli DNA gyrase (Escherichia coli, UniProt P0AES6). Put plainly: E. coli DNA gyrase supercoiling assay. The settings on record: for IC50: supercoiling assay, average of three independent measurements. It counts as biochemical. The text has this: (§1) All final compounds were first tested for their inhibitory activity in the E. coli DNA gyrase supercoiling assay and the E. coli topoisomerase IV relaxation assay (Table 1). […] These observations were confirmed with compounds 18a and 18b, which carried the siderophore mimic at position 4. […] With compounds 18a and 18b, we confirmed our hypothesis that it is possible to maintain potent enzyme inhibition after introduction of the siderophore mimic into the structure of the GyrB/ParE inhibitor.
(§2) The assays for determination of IC50 against E. coli DNA gyrase and topoisomerase IV were performed according to previously reported procedures.[23] IC50 values were determined with seven concentrations of the inhibitors. […] IC50 values were determined in three independent measurements, and their average value is given as a final result.

Series [1] addresses T1, E. coli topoisomerase IV (Escherichia coli, UniProt P20083). Briefly: E. coli topoisomerase IV relaxation assay. It counts as biochemical. The settings on record: average of three independent measurements.
Excerpt: as §1, §2

The next series deals with E. coli ATCC 25922. Briefly: Broth microdilution MIC, E. coli ATCC 25922. It counts as cell-based, Escherichia coli. The text has this:
(§3) Cefiderocol, a siderophore cephalosporin, was used as a positive control. Compound 18a was only tested on E. coli in both media conditions. Iron-depleted conditions were used to determine the effects of the attached siderophore mimics on antibacterial activities, since bacteria under low iron conditions produce and secrete siderophores to take up iron from the extracellular environment.[32] […] We have previously observed that our benzothiazole GyrB/ParE inhibitors are strongly effluxed from the G− bacterial cells and that this effect is especially pronounced in E. coli.[14] Therefore, compounds 10, 12, and 18b were also tested against E. coli JW5503, which is a tolC deletion mutant strain with a defective efflux pump.
(§4) The single-gene knock-out mutant strain of E. coli JW5503 (tolC knock-out) was obtained from the E. coli collection of the National BioResource Project at the National Institute of Genetics (Japan).[45] To determine the antibacterial activities, broth microdilution assays were carried out in 96-well plates following the Clinical and Laboratory Standards Institute guidelines.[46] Compounds were prepared as 100% DMSO stock solutions. The final concentration of DMSO was 1% and had no effect on the growth of bacteria. Preliminary screening was performed at 50 μM, and growth inhibition was measured after 24 h incubation at 37 °C. For compounds displaying >90% growth inhibition in the preliminary assay, MIC values were determined in dose–response assays (from at least two independent experiments, each with three replicates per concentration). Cation-adjusted Mueller-Hinton broth (CAMHB, BD) was used in all assays. CAMHB was prepared according to manufacturer's instructions and iron-depleted CAMHB (ID-CAMHB) according to CLSI guidelines. ID-CAMHB was used in order to mimic the conditions faced by bacteria during human infections, and induces the ferric iron transport. ID-CAMHB was prepared by adding 100 g of Chelex 100 resin (Bio-Rad) to 1 L of autoclaved CAMHB and stirred for 2 h at room temperature, in order to remove cations from the medium. Then, broth was filtered using a 0.2 μm filter to remove the resin and pH adjusted to 7.3 using 5 M hydrochloric acid. ID-CAMHB was then supplemented with calcium (CaCl2), magnesium (MgCl2) and zinc (ZnSO4) to final concentrations of 22.5 μg mL^−1, 11.25 μg mL^−1 and 0.56 μg mL^−1, respectively, and filtered again. To evaluate the effect of iron concentration on antibacterial effect of compounds, an appropriate amount of iron(III) chloride was added to ID-CAMHB, and this supplemented media was used as control CAMHB. The iron concentration in CAMHB and ID-CAMHB were approximately 0.2 mg L^−1 and ≤0.03 mg L^−1, respectively. Cefiderocol, a positive control, MICs were determined against E. coli, P. aeruginosa and A. baumannii, and used as positive control in the assays. Cefiderocol was purchased from MedChemExpress Europe.
For orientation: Dilution methods test growth across graded concentrations, often in twofold steps.

A further series has as its system P. aeruginosa ATCC 27853. Put plainly: Broth microdilution MIC, P. aeruginosa ATCC 27853. It counts as cell-based. The settings on record: Pseudomonas aeruginosa, ATCC27853, P. aeruginosa ATCC 27853, read-out: Minimum inhibitory concentrations.
Excerpt: as §3, §4

In the next series the test system is A. baumannii ATCC 19606. Put plainly: Broth microdilution MIC, A. baumannii ATCC 19606. It counts as cell-based. Particulars: Acinetobacter baumannii, ATCC19606, A. baumannii ATCC 19606, read-out: Minimum inhibitory concentrations.
Excerpt: as §3, §4

The next series has as its system E. coli JW5503. Put plainly: Broth microdilution MIC, efflux-defective E. coli JW5503 (tolC deletion mutant). It counts as cell-based, Escherichia coli. The settings on record: for MIC: Escherichia coli; for improvement of antibacterial activity in iron-depleted medium: iron-depleted vs iron-supplemented medium, E. coli JW5503.
Excerpt: as §3, §4

The subject of series [2] is wild type G− E. coli, P. aeruginosa and A. baumannii. Put plainly: Antibacterial activity against wild type G− bacteria (screen at 50 μM). It counts as cell-based.
Excerpt: as §3
as §4, with “The iron concentration in CAMHB and ID-CAMHB were approximately 0.2 mg L^−1 and ≤0.03 mg L^−1, respectively.” left out, “Cefiderocol was purchased from MedChemExpress Europe.” left out

The target in series [3] is T1, E. coli topoisomerase IV. On the set-up: method as in PMID 33017402, PMID 33524686, PMID 36634346, PMID 36877255. Particulars: parent inhibitors; cited from earlier work.
Setting [4] is: E. coli ATCC 25922, +Fe: CAMHB + Fe, read-out: Minimum inhibitory concentrations.
Setting [5] is: Escherichia coli, ATCC25922, read-out: Minimum inhibitory concentrations.
Setting [6] is: JW5503, read-out: Minimum inhibitory concentrations, E. coli JW5503, +Fe: CAMHB + Fe.
Where [7] appears, read: JW5503, read-out: Minimum inhibitory concentrations, E. coli JW5503, −Fe: ID-CAMHB.

T1 sequence (P0AFI2 whole entry): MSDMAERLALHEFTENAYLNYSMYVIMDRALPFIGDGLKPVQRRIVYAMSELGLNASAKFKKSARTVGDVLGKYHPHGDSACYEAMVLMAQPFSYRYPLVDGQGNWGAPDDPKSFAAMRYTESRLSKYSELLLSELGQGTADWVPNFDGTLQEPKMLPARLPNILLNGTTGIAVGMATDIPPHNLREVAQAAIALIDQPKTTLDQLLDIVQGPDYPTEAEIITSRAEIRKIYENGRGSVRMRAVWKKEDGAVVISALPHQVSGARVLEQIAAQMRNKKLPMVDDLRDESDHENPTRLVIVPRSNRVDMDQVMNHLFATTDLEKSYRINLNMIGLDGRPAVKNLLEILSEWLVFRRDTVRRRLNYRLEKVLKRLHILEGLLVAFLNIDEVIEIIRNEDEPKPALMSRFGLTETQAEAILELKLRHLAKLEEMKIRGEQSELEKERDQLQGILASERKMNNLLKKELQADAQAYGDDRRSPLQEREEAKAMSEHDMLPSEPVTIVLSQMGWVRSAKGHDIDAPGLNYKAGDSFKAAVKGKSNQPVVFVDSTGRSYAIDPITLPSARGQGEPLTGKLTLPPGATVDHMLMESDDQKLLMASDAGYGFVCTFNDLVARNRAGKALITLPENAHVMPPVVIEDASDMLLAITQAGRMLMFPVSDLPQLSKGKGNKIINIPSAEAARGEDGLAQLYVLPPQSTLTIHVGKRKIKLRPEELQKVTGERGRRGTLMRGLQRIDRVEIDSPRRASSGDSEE
T1 sequence (P20083 whole entry): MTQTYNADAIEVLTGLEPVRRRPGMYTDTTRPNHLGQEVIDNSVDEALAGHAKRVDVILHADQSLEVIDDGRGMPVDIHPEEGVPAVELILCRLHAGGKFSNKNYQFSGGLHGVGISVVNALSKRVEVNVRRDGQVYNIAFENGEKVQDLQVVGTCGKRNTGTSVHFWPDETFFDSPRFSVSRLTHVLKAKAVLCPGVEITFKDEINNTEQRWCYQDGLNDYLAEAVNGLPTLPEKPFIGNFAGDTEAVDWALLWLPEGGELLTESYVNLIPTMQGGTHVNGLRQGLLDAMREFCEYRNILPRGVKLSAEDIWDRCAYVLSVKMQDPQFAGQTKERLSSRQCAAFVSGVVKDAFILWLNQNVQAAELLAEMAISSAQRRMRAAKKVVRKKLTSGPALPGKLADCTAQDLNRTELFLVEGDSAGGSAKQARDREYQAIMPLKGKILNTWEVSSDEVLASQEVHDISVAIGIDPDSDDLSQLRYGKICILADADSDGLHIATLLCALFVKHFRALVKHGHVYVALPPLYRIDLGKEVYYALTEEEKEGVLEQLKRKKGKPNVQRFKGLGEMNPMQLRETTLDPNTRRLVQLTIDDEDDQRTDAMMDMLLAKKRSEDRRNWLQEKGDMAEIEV

As usually defined, the IC50 is the concentration needed to halve the response being measured. By melting point is commonly meant the temperature of the solid-liquid transition. Turning to `O=C(NCc1cc(=O)c(O)co1)c1ccc2nc(NC(=O)c3cc(Br)c(Br)[nH]3)sc2c1` [Compound 10, 2-(4,5-Dibromo-1H-pyrrole-2-carboxamido)-N-((5-hydroxy-4-oxo-4H-pyran-2-yl)methyl)benzo[d]thiazole-6-carboxamide], the melting point was above 300 °C. In addition, at E. coli DNA gyrase, the “IC50 E. coli DNA gyrase (range in words)” value is on record as “low micromolar range” and half-maximal inhibition (IC50) was put at 1420 ± 180 nM. Further, the half-inhibitory concentration (IC50) on E. coli topoisomerase IV [1] is above 10000 nM. Moreover, the MIC in the series with E. coli ATCC 25922 (setting [4]) is given as above 50 µM. Also, the MIC with E. coli ATCC 25922 (setting [5]) is above 50 µM. For the same compound, the MIC in the series with P. aeruginosa ATCC 27853 (+Fe: CAMHB + Fe) was above 50 µM. Moreover, the MIC with P. aeruginosa ATCC 27853 (−Fe: ID-CAMHB) was above 50 µM. Also, the MIC in the series with A. baumannii ATCC 19606 (+Fe: CAMHB + Fe) is above 50 µM. The MIC with A. baumannii ATCC 19606 (−Fe: ID-CAMHB) is above 50 µM. For the same compound, the MIC with E. coli JW5503 (setting [6]) is above 50 µM. Besides, in the series on E. coli JW5503 (setting [7]), the MIC was above 50 µM. This compound had an MIC in series [2] above 50 µM.
`Cc1[nH]c(C(=O)Nc2nc3ccc(C(=O)O)cc3s2)c(Cl)c1Cl` [A]: on E. coli topoisomerase IV [3], the concentration for half-maximal inhibition (IC50) was 500 ± 280 nM.
For the compound `CC(C)(O/N=C(\C(=O)N[C@@H]1C(=O)N2C(C(=O)[O-])=C(C[N+]3(CCNC(=O)c4ccc(O)c(O)c4Cl)CCCC3)CS[C@H]12)c1csc(N)n1)C(=O)O` [Cefiderocol, reference compound], the MIC with E. coli ATCC 25922 (setting [4]) is 0.25 µM; in the series on E. coli ATCC 25922 (setting [5]), 0.25 µM (≈ 0.188 µg/mL); with P. aeruginosa ATCC 27853 (+Fe: CAMHB + Fe), 1 µM; with P. aeruginosa ATCC 27853 (−Fe: ID-CAMHB), 0.25 µM (≈ 0.188 µg/mL); in the series with A. baumannii ATCC 19606 (+Fe: CAMHB + Fe), 2 µM; in the series on A. baumannii ATCC 19606 (−Fe: ID-CAMHB), 0.25 µM (≈ 0.188 µg/mL). Besides, the results for the MIC with E. coli JW5503 (setting [6]) and with E. coli JW5503 (setting [7]) were 0.125 µM and 0.0625 µM, respectively. Also, the “improvement of antibacterial activity in iron-depleted medium” value with E. coli JW5503 is “twofold”.
On to `O=C(O)c1cc(OCc2cc(=O)c(O)c[nH]2)c2nc(NC(=O)c3cc(Br)c(Br)[nH]3)sc2c1` [Compound 18a, 2-(4,5-Dibromo-1H-pyrrole-2-carboxamido)-4-((5-hydroxy-4-oxo-1,4-dihydropyridin-2-yl)methoxy)benzo[d]thiazole-6-carboxylic acid], for which the “IC50 E. coli DNA gyrase (range in words)” value at E. coli DNA gyrase is on record as “low nanomolar range”. Moreover, the results for the IC50 against E. coli DNA gyrase and against E. coli topoisomerase IV [1] were 12 ± 5 nM and 1280 ± 820 nM, respectively. The MIC is above 50 µM in the series on E. coli ATCC 25922 (setting [4]); above 50 µM in the series on E. coli ATCC 25922 (Escherichia coli, ATCC25922, E. coli ATCC 25922, −Fe: iron depleted CAMHB (ID-CAMHB), read-out: Minimum inhibitory concentrations); above 50 µM in series [2] (iron-supplemented and iron-depleted media, indicated by weak activity at 50 μM, read-out: MIC).
Turning to `Cc1[nH]c(C(=O)Nc2nc3c(OCc4cc(=O)c(O)c[nH]4)cc(C(=O)O)cc3s2)c(Cl)c1Cl` [Compound 18b, 2-(3,4-Dichloro-5-methyl-1H-pyrrole-2-carboxamido)-4-((5-hydroxy-4-oxo-1,4-dihydropyridin-2-yl)methoxy)benzo[d]thiazole-6-carboxylic acid], the melting point was above 300 °C. Also, at E. coli DNA gyrase, the “IC50 E. coli DNA gyrase (range in words)” value is recorded as “low nanomolar range” and the IC50 amounted to 22 ± 6 nM. The same compound returned a concentration for half-maximal inhibition (IC50) at E. coli topoisomerase IV [1] of 430 ± 20 nM. Further, the MIC in the series on E. coli ATCC 25922 (setting [4]) is on record as above 50 µM. In addition, the MIC with E. coli ATCC 25922 (setting [5]) is above 50 µM. For the same compound, the MIC with P. aeruginosa ATCC 27853 (+Fe: CAMHB + Fe) is above 50 µM. Also, the MIC in the series with P. aeruginosa ATCC 27853 (−Fe: ID-CAMHB) is above 50 µM. Moreover, in the series on A. baumannii ATCC 19606 (+Fe: CAMHB + Fe), the MIC was above 50 µM. Further, the MIC with A. baumannii ATCC 19606 (−Fe: ID-CAMHB) was above 50 µM. Also, the MIC with E. coli JW5503 (JW5503, E. coli JW5503, iron-depleted conditions) came to 6.37 µg/mL. This compound also registered an MIC in the series on E. coli JW5503 (JW5503, E. coli JW5503, iron-supplemented conditions) of 12.7 µg/mL. Besides, the MIC with E. coli JW5503 (setting [6]) is 25 µM. Also, in the series on E. coli JW5503 (setting [7]), the MIC turned out to be 12.5 µM. Also, the “improvement of antibacterial activity in iron-depleted medium” value in the series with E. coli JW5503 is listed as “twofold”. Also, in series [2], the MIC was above 50 µM.
The compound `O=C(NCc1cc(=O)c(O)c[nH]1)c1ccc2nc(NC(=O)c3cc(Br)c(Br)[nH]3)sc2c1` [Compound 12, 2-(4,5-Dibromo-1H-pyrrole-2-carboxamido)-N-((5-hydroxy-4-oxo-1,4-dihydropyridin-2-yl)methyl)benzo[d]thiazole-6-carboxamide] displayed a melting point above 300 °C. For the same compound, on E. coli DNA gyrase, the “IC50 E. coli DNA gyrase (range in words)” value is recorded as “low micromolar range” and the IC50 was 1700 ± 360 nM. In addition, the concentration for half-maximal inhibition (IC50) on E. coli topoisomerase IV [1] is above 10000 nM. For the same compound, the MIC with E. coli ATCC 25922 (setting [4]) is given as above 50 µM. In the series on E. coli ATCC 25922 (setting [5]), the MIC is above 50 µM. For the same compound, the MIC in the series on P. aeruginosa ATCC 27853 (+Fe: CAMHB + Fe) was above 50 µM. Further, the MIC in the series with P. aeruginosa ATCC 27853 (−Fe: ID-CAMHB) is above 50 µM. Besides, in the series on A. baumannii ATCC 19606 (+Fe: CAMHB + Fe), the MIC was above 50 µM. Further, in the series on A. baumannii ATCC 19606 (−Fe: ID-CAMHB), the MIC is above 50 µM. The MIC in the series with E. coli JW5503 (setting [6]) was above 50 µM. Moreover, the MIC in the series with E. coli JW5503 (setting [7]) is above 50 µM. Further, the MIC in series [2] is above 50 µM.
